Our source for the IC50 values is ChEMBL document CHEMBL1148423, “Estrogen receptor ligands. Part 5: The SAR of dihydrobenzoxathiins containing modified basic side chains” (Bioorg Med Chem Lett, 2004).

In one assay the target is Estrogen receptor beta (Homo sapiens, UniProt Q92731).
The next assay has as its target T1, Estrogen receptor (Homo sapiens, UniProt P03372).
T1 sequence (P03372 whole entry): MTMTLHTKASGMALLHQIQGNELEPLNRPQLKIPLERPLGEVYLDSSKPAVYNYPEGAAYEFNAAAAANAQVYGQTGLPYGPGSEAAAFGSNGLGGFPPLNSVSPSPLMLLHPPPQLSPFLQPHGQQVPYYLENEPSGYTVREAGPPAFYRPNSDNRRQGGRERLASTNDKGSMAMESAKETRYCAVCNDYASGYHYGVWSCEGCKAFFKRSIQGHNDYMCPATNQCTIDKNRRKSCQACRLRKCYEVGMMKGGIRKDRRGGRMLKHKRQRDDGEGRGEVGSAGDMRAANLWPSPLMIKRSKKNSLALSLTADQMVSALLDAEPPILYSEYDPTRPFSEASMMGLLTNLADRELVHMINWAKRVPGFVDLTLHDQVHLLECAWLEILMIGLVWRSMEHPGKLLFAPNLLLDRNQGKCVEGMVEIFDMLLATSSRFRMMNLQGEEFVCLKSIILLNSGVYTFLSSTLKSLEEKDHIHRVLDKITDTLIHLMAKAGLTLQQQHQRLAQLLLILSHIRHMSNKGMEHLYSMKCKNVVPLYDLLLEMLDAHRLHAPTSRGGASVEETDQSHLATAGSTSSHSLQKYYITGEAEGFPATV

The next assay has as its system MCF7. Description: Inhibition of MCF-7 cancer cell proliferation. It counts as functional, cell-based. The conditions noted are these: Homo sapiens.

Chain of Estrogen receptor beta (Q92731 whole entry): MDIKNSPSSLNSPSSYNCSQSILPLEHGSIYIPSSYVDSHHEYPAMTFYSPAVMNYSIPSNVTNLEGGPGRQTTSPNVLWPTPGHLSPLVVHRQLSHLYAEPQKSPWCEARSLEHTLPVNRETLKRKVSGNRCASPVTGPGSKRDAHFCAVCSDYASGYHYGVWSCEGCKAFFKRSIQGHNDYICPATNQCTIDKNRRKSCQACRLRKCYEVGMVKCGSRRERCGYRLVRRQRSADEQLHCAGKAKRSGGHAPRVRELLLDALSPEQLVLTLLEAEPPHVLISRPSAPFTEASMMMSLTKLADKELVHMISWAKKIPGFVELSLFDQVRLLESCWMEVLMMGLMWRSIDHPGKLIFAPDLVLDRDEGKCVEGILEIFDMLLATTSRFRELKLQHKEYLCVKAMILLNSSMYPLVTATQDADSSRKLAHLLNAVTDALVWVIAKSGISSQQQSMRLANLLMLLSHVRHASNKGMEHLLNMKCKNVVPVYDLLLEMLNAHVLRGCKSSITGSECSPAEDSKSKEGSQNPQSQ
Description for Estrogen receptor beta: Binding affinity for human estrogen receptor beta

By IC50 is commonly meant the concentration that inhibits the measured activity by half. Regarding `CCN1CCN(c2ccc([C@@H]3Oc4ccc(O)cc4S[C@@H]3c3ccc(O)cc3)cc2)CC1`, the IC50 is 27 nM on Estrogen receptor beta, 1 nM against Estrogen receptor and 1.4 nM in the assay on MCF7.
On to `CN1CCCN(c2ccc([C@@H]3Oc4ccc(O)cc4S[C@@H]3c3ccc(O)cc3)cc2)CC1`, for which the figures for the IC50 on Estrogen receptor beta, against Estrogen receptor and in the assay with MCF7 were 365 nM, 3.6 nM and 29 nM, respectively.
In the case of `CN1CCN(c2ccc([C@@H]3Oc4ccc(O)cc4S[C@@H]3c3ccc(O)cc3)cc2)CC1`, the IC50 against Estrogen receptor beta is 59 nM; against Estrogen receptor, 1 nM; in the assay on MCF7 it was 3.4 nM.
Take `Oc1ccc([C@H]2Sc3cc(O)ccc3O[C@H]2CCCN2CCCCC2)cc1`: the IC50 on Estrogen receptor beta was 27 nM; against Estrogen receptor it was 0.7 nM; in the assay on MCF7, 1.2 nM.
In the case of `Oc1ccc([C@H]2Sc3cc(O)ccc3O[C@H]2c2ccc(COCCN3CCCCC3)cc2)cc1`, the IC50 was determined as 259 nM against Estrogen receptor beta, 2.3 nM against Estrogen receptor and 14.6 nM with MCF7.
On to `Oc1ccc([C@H]2Sc3cc(O)ccc3O[C@H]2c2ccc(CCCN3CCCCC3)cc2)cc1`, for which the results for the IC50 on Estrogen receptor beta, on Estrogen receptor and with MCF7 were 186 nM, 1.4 nM and 6.7 nM, respectively.
Turning to `Oc1ccc([C@H]2Sc3cc(O)ccc3O[C@H]2c2ccc(C3CCNCC3)cc2)cc1`, the IC50 against Estrogen receptor beta was found to be 115 nM; against Estrogen receptor, 1.7 nM; in the assay on MCF7, 1.9 nM.
The like results for `Oc1ccc([C@H]2Sc3cc(O)ccc3O[C@H]2c2ccc(N3CCNCC3)cc2)cc1` were, in that order, 186 nM, 4.4 nM and 2.8 nM.
In the case of `Oc1ccc([C@H]2Sc3cc(O)ccc3O[C@H]2c2ccc(C3=CCNCC3)cc2)cc1`, the IC50 at Estrogen receptor beta was found to be 31 nM; at Estrogen receptor it was 1.4 nM; in the assay with MCF7, 0.9 nM.
In the case of `Oc1ccc([C@H]2Sc3cc(O)ccc3O[C@H]2c2ccc(CN3CCCCC3)cc2)cc1`, the IC50 at Estrogen receptor beta came to 4370 nM; at Estrogen receptor, 155 nM.
Consider `Oc1ccc([C@H]2Sc3cc(O)ccc3O[C@H]2c2ccc(N3CCCNCC3)cc2)cc1`, for which the IC50 on Estrogen receptor beta amounted to 161 nM; at Estrogen receptor, 3.6 nM; with MCF7, 28 nM.
